The results in this text go back to patent US20240158446A1, “CYCLIC COMPOUND HAVING SELECTIVE INHIBITORY ACTION ON KRAS OVER HRAS AND NRAS” (CHUGAI SEIYAKU KABUSHIKI KAISHA, priority 2021, published 2024).

A word on the pKd: it is −log10 of the Kd, conventionally taken in molar units. One may read the pIC50 as the negative decadic logarithm of the IC50, by convention in mol/L. A lower pIC50 goes with a large IC50.

For experiment [1], the target named is GDP-bound HRAS wild-type protein (Homo sapiens, UniProt P01112). Briefly: Binding to HRAS by surface plasmon resonance (SPR), Single Cycle Kinetics. As to conditions: for HRAS/KRAS (ratio of KD value for HRAS to KD value for KRAS): SPR, GDP-bound HRAS wild-type protein vs GDP-bound KRAS wild-type protein; for HRAS/KRAS (ratio of KD value with respect to GDP-bound HRAS wild-type protein to KD value with respect to KRAS): SPR KD ratio HRAS/KRAS, class symbols. (SPR reads the build-up and loss of mass on a sensor chip optically.)
GDP-bound HRAS wild-type protein, sequence (P01112 whole entry): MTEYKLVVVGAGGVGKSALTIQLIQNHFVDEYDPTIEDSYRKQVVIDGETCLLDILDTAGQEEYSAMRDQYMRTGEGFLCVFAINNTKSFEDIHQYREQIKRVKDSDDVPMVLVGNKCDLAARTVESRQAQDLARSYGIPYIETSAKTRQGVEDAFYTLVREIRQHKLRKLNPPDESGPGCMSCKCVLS

In experiment [2] the target is GDP-bound NRAS wild-type protein (Homo sapiens, UniProt P01111). In words: Binding to NRAS by surface plasmon resonance (SPR), Single Cycle Kinetics. As to conditions: for NRAS/KRAS (ratio of KD value for NRAS to KD value for KRAS): SPR, GDP-bound NRAS wild-type protein vs GDP-bound KRAS wild-type protein; for NRAS/KRAS (ratio of KD value with respect to GDP-bound NRAS wild-type protein to KD value with respect to KRAS): SPR KD ratio NRAS/KRAS, class symbols.
GDP-bound NRAS wild-type protein, sequence (P01111 whole entry): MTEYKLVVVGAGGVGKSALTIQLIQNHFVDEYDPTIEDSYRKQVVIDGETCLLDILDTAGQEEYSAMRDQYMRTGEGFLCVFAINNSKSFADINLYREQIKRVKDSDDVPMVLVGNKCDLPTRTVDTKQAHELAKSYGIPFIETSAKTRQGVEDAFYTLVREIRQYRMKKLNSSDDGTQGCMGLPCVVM

The target of experiment [3] is GDP-bound KRAS wild-type protein (Homo sapiens, UniProt P01116). In words: Binding to KRAS by surface plasmon resonance (SPR), Single Cycle Kinetics. As to conditions: GDP-bound KRAS wild-type protein, read-out: KRAS KD.
GDP-bound KRAS wild-type protein, sequence (P01116 whole entry): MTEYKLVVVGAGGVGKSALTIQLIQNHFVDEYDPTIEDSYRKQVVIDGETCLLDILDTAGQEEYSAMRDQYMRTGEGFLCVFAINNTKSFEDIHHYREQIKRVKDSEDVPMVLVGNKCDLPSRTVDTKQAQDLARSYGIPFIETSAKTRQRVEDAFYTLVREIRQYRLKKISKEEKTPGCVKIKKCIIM
In experiment [4] the test system is human lung cancer strain NCI-H441.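 Further: cell proliferation inhibition after four days measured by CellTiter-Glo.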
[5] abbreviates: SPR, Single Cycle Kinetics, 1:1 binding model.
[6] abbreviates: SPR Single Cycle Kinetics, 1:1 binding model.

pIC50, pKd: −log10 of the molar value. Where two headings read alike, the source gives them in different places.

In the case of `CCOC[C@H]1C(=O)N[C@@H]([C@@H](C)CC)C(=O)N(C)CC(=O)N(C)[C@H]2C/C=C\CCN(C2=O)[C@@H](Cc2ccc(C)cc2)C(=O)N(C)CC(=O)N[C@@H](CCc2cc(F)c(C(F)(F)F)c(F)c2)C(=O)N2C[C@H](OCC)C[C@H]2C(=O)NC2(CC(C)(C)C2)C(=O)N(C)[C@@H](C2CCCC2)C(=O)N(C)[C@H](C(=O)N(C)C)CC(=O)N1C` [PP2397], the “HRAS/KRAS (ratio of KD value for HRAS to KD value for KRAS)” value in experiment [1] was “A (a compound having 10 or more and less than 20 is denoted as A)”. Also, in experiment [2], the “NRAS/KRAS (ratio of KD value for NRAS to KD value for KRAS)” value was “A (a compound having 10 or more and less than 20 is denoted as A)”. Moreover, the negative logarithm of the Kd (pKd) in experiment [3] (SPR, Single Cycle Kinetics) was 10.29. Also, the pIC50 in experiment [4] is 8.33.
As for `CCOC[C@H]1C(=O)N[C@@H]([C@@H](C)CC)C(=O)N(C)CC(=O)N(C)[C@H]2C/C=C\CCN(C2=O)[C@@H](CC2CCC(F)(F)CC2)C(=O)N(C)CC(=O)N[C@@H](CCc2cc(F)c(C(F)(F)F)c(F)c2)C(=O)N2C[C@H](OCC)C[C@H]2C(=O)NC2(CC(C)(C)C2)C(=O)N(C)[C@@H](C(CC)CC)C(=O)N(C)[C@H](C(=O)N(C)C)CC(=O)N1C` [PP2450], the “HRAS/KRAS (ratio of KD value for HRAS to KD value for KRAS)” value in experiment [1] was “A (a compound having 10 or more and less than 20 is denoted as A)”. In addition, in experiment [2], the “NRAS/KRAS (ratio of KD value for NRAS to KD value for KRAS)” value is “A (a compound having 10 or more and less than 20 is denoted as A)”. Also, the pKd in experiment [3] (SPR, Single Cycle Kinetics) was 9.26. In addition, the negative logarithm of the IC50 (pIC50) in experiment [4] is 7.53.
`CCC[C@H]1C(=O)N[C@@H]([C@@H](C)CC)C(=O)N(C)CC(=O)N(C)[C@H]2C/C=C\CCN(C2=O)[C@@H](CC2CCC(F)(F)CC2)C(=O)N(C)CC(=O)N[C@@H](CCc2ccc(C(F)(F)F)c(Cl)c2)C(=O)N2C[C@H](OCC)C[C@H]2C(=O)NC2(CC(C)(C)C2)C(=O)N(C)[C@@H](C(CC)CC)C(=O)N(C)[C@H](C(=O)N(C)C)CC(=O)N1C` [PP2498]: the “HRAS/KRAS (ratio of KD value for HRAS to KD value for KRAS)” value in experiment [1] was “A (a compound having 10 or more and less than 20 is denoted as A)”. Besides, the “NRAS/KRAS (ratio of KD value for NRAS to KD value for KRAS)” value in experiment [2] is “A (a compound having 10 or more and less than 20 is denoted as A)”. Besides, the pKd in experiment [3] (SPR, Single Cycle Kinetics) is 9.17. The same molecule gave a negative-log IC50 (pIC50) in experiment [4] of 7.66.
`CCO[C@@H]1C[C@H]2C(=O)NC3(CCC3)C(=O)N(C)[C@@H](C(CC)CC)C(=O)N(C)[C@H](C(=O)N(C)C)CC(=O)N(C)[C@@H](COC)C(=O)N[C@@H]([C@@H](C)CC)C(=O)N(C)CC(=O)N(C)[C@H]3C/C=C\CCN(C3=O)[C@@H](Cc3ccc(C(F)(F)F)cc3)C(=O)N(C)CC(=O)N[C@@H](CCc3cc(F)c(C(F)(F)F)c(F)c3)C(=O)N2C1` [PP1205]: the “HRAS/KRAS (ratio of KD value for HRAS to KD value for KRAS)” value in experiment [1] (KD ratio class) is “A (a compound having 10 or more and less than 20 is denoted as A)”. For the same molecule, the “NRAS/KRAS (ratio of KD value for NRAS to KD value for KRAS)” value in experiment [2] (KD ratio class) is listed as “AA (a compound having 20 or more is denoted as AA)”. The negative logarithm of the Kd (pKd) in experiment [3] (setting [5]) was 9.80. In experiment [4], this molecule had a negative logarithm of the IC50 (pIC50) of 7.60.
On to `CCCC[C@H]1C(=O)N[C@@H]([C@@H](C)CC)C(=O)N(C)CC(=O)N(C)[C@H]2C/C=C\CCN(C2=O)[C@@H](Cc2ccc(C(F)(F)F)cc2)C(=O)N(C)CC(=O)N[C@@H](CCc2cc(F)c(C(F)(F)F)c(F)c2)C(=O)N2C[C@H](OCC)C[C@H]2C(=O)NC2(CCC2)C(=O)N(C)[C@@H](C2CCCC2)C(=O)N(C)[C@H](C(=O)N(C)C)CC(=O)N1C` [PP1392, (2S,8S,12R,14S,20S,23S,27S,30S,36S,38Z)-27-butyl-20-cyclopentyl-8-[2-[3,5-difluoro-4-(trifluoromethyl)phenyl]ethyl]-12-ethoxy-N,N,4,19,22,26,32,35-octamethyl-30-[(1S)-1-methylpropyl]-3,6,9,15,18,21,25,28,31,34,42-undecaoxo-2-[[4-(trifluoromethyl)phenyl]methyl]spiro[1,4,7,10,16,19,22,26,29,32,35-undecazatricyclo[34.5.1.0^10,14]dotetracont-38-ene-17,1′-cyclobutane]-23-carboxamide], for which the “HRAS/KRAS (ratio of KD value for HRAS to KD value for KRAS)” value in experiment [1] (KD ratio class) was “A (a compound having 10 or more and less than 20 is denoted as A)”. In addition, in experiment [2] (KD ratio class), the “NRAS/KRAS (ratio of KD value for NRAS to KD value for KRAS)” value is “A (a compound having 10 or more and less than 20 is denoted as A)”. In experiment [3] (setting [5]), the negative logarithm of the Kd (pKd) was 10.33. The pIC50 in experiment [4] is 8.85.
For the molecule `CCO[C@@H]1C[C@H]2C(=O)NC3(CCCC3)C(=O)N(C)[C@@H](C3CCCC3)C(=O)N(C)[C@H](C(=O)N3CCOCC3)CC(=O)N(C)[C@@H](CC)C(=O)N[C@@H]([C@@H](C)CC)C(=O)N(C)CC(=O)N(C)[C@H]3C[C@@H](C)[C@@H](C)CN(C3=O)[C@@H](Cc3ccc(C(F)(F)F)cc3)C(=O)N(C)CC(=O)N[C@@H](CCc3ccc(C(F)(F)F)c(Cl)c3)C(=O)N2C1` [PP1359], the “HRAS/KRAS (ratio of KD value for HRAS to KD value for KRAS)” value in experiment [1] (KD ratio class) is “B (a compound having 3 or more and less than 10 is denoted as B)”. Also, the “NRAS/KRAS (ratio of KD value for NRAS to KD value for KRAS)” value in experiment [2] (KD ratio class) was “A (a compound having 10 or more and less than 20 is denoted as A)”. In addition, in experiment [3] (setting [5]), the negative logarithm of the Kd (pKd) was 10.17. For the same molecule, the pIC50 in experiment [4] was 8.49.
As for `CCC[C@H]1C(=O)N[C@@H](CC(C)C)C(=O)N(C2CC2)CC(=O)N(C)[C@H]2C/C=C\CCN(C2=O)[C@@H](Cc2ccc(C)cc2)C(=O)N(C)CC(=O)N[C@@H](CCc2cc(F)c(C(F)(F)F)c(F)c2)C(=O)N2C[C@H](OCC)C[C@H]2C(=O)NC2(CCC2)C(=O)N(C)[C@@H](C2CCCC2)C(=O)N(C)[C@H](C(=O)N(C)C)CC(=O)N1C` [PP2532], the “HRAS/KRAS (ratio of KD value with respect to GDP-bound HRAS wild-type protein to KD value with respect to KRAS)” value in experiment [1] is “B (a compound having 3 or more and less than 10 is denoted as B)”. Also, the “NRAS/KRAS (ratio of KD value with respect to GDP-bound NRAS wild-type protein to KD value with respect to KRAS)” value in experiment [2] is “A (a compound having 10 or more and less than 20 is denoted as A)”. The pKd in experiment [3] (setting [6]) is 8.39. In experiment [4], the negative logarithm of the IC50 (pIC50) is 6.84.
As to `CCCO[C@H](C)[C@@H]1NC(=O)[C@H](CC(C)C)N(C)C(=O)C[C@@H](C(=O)N(C)C)N(C)C(=O)[C@H](C2CCCC2)N(C)C(=O)C2(CC(C)(C)C2)NC(=O)[C@@H]2C[C@H](C)CN2C(=O)[C@H](CCc2ccc(C(F)(F)F)c(OC)c2)NC(=O)CN(C)C(=O)[C@H](Cc2ccc(C)cc2)N2CC/C=C\C[C@@H](C2=O)N(C)C(=O)CN(C)C1=O` [PP2415], the “HRAS/KRAS (ratio of KD value for HRAS to KD value for KRAS)” value in experiment [1] was “A (a compound having 10 or more and less than 20 is denoted as A)”. The “NRAS/KRAS (ratio of KD value for NRAS to KD value for KRAS)” value in experiment [2] is on record as “AA (a compound having 20 or more is denoted as AA)”. Further, in experiment [3] (SPR, Single Cycle Kinetics), the pKd was 10.03. This molecule also gave a pIC50 in experiment [4] of 7.99.
As to `CCOC[C@H]1C(=O)N[C@@H]([C@@H](C)CC)C(=O)N(C2CC2)CC(=O)N(C)[C@H]2C/C=C\CCN(C2=O)[C@@H](Cc2ccc(C)cc2)C(=O)N(C)CC(=O)N[C@@H](CCc2cc(F)c(C(F)(F)F)c(F)c2)C(=O)N2C[C@H](OCC)C[C@H]2C(=O)NC2(CC(C)(C)C2)C(=O)N(C)[C@@H](CC(C)(C)C)C(=O)N(C)[C@H](C(=O)N(C)C)CC(=O)N1C` [PP2720], the “HRAS/KRAS (ratio of KD value with respect to GDP-bound HRAS wild-type protein to KD value with respect to KRAS)” value in experiment [1] was “A (a compound having 10 or more and less than 20 is denoted as A)”. Also, the “NRAS/KRAS (ratio of KD value with respect to GDP-bound NRAS wild-type protein to KD value with respect to KRAS)” value in experiment [2] is “A (a compound having 10 or more and less than 20 is denoted as A)”. The negative logarithm of the Kd (pKd) in experiment [3] (setting [6]) is 9.46. Also, in experiment [4], the pIC50 is 8.11.
